Measured values taken from patent publication US10858316B2, “Small molecule inhibitors of the MCL-1 oncoprotein and uses thereof” (University of Maryland, Baltimore, priority 2015, dated 2020).
Like-named read-outs stand apart in the source and are kept apart here.

How the values were obtained:
[1] = target: Mcl-1 (Homo sapiens (Human), UniProt Q07820); assay: Fluorescence polarization competition assay (FPCA), Mcl-1 / FITC-Bak BH3 peptide; format: binding; details: for Mcl-1 Exp ΔG: ΔG=−RTlnKi from experimental Ki
From the text: The tagged protein was initially purified from the crude cell lysate by immobilized metal affinity chromatography (IMAC) chromatography (GE Healthcare Life Sciences), and after dialysis to remove the imidazole the affinity tag was cleaved using PreScission Protease (GE Healthcare Life Sciences). A Sephacryl S-200 size exclusion column was used as a final purification step before the protein was concentrated with a 10,000 MWCO centifugal filter concentrator (Millipore).
(§1) Fluorescence polarization experiments were conducted using a BMG PHERAstar FS multimode microplate reader equipped with two PMTs for simultaneous measurements of the perpendicular and parallel fluorescence emission. The assays were performed in black polypropylene 384-well microplate (Costar) with a final volume of 20 microliter. […] Regression analysis was carried out using Origin (OriginLab, Northampton, Mass.) to fit the data to the Hill equation (1) to determine the initial binding affinity (KD) and the IC50 in the FPCA. For the fluorescence polarization competition titrations, an equation derived by Nikolovska-Coleska et al. was used to calculate the Ki from the IC50 data.
The target molecules were assayed for their abilities to disrupt the Mcl-1-Bak-BH3 PPI in a fluorescence polarization competition (FPC) assay with Mcl-1 and FITC-labeled Bak-BH3 peptide. Further details on the FPC assay can be found in the Supporting Information.

[2] = target: Bcl-xL (Homo sapiens (Human), UniProt Q07817); assay: Fluorescence polarization competition assay, Bcl-xL; format: binding; details: for Bcl-xL Exp ΔG: ΔG from experimental Ki
Description: as §1

[3] = FPCA with FITC-Bak, Ki from IC50 by Nikolovska-Coleska equation, read-out: Mcl-1 Ki
[4] = Ki from IC50 by Nikolovska-Coleska equation, NA = no activity, read-out: Bcl-xL Ki
[5] = fluorescence polarization competition assay, read-out: Ki (μM) Mcl-1

Chain of Mcl-1 (Q07820 172-327): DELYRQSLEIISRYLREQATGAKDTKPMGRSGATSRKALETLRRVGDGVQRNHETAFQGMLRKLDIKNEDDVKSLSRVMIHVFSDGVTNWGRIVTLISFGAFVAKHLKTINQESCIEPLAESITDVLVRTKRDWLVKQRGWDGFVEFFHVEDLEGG
Chain of Bcl-xL (Q07817 whole entry): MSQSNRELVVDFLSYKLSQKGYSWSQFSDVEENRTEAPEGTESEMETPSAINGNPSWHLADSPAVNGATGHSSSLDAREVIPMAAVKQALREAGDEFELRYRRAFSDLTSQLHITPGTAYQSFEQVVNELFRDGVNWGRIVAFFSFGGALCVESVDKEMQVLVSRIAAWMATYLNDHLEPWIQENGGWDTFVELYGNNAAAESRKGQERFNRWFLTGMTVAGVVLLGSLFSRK

| Compound | Ki [1, 3] [µM] | further results |
| --- | --- | --- |
| CC(C)CN(c1ccc(OC(C)C)cc1)S(=O)(=O)c1cc(C(=O)O)c(O)c2ccccc12 [3ba; MEL-2-116] |  | Mcl-1 Exp ΔG [1]: -8.61 kcal/mol; Bcl-xL Exp ΔG [2]: -7.11 kcal/mol |
| Cc1cc(Oc2ccc(N(Cc3ccccc3)S(=O)(=O)c3cc(C(=O)O)c(O)c4ccccc34)cc2)cc(C)c1Cl [3bl; JY-5-380] |  | Mcl-1 Exp ΔG [1]: -10.24 kcal/mol; Bcl-xL Exp ΔG [2]: -8.82 kcal/mol |
| CC(C)CN(c1ccc(C(=O)O)c(O)c1)S(=O)(=O)c1ccccc1 [4jc117-1 13aa] | 192 ± 37.5 | Ki [2, 4]: 154 ± 27.6 µM |
| CC(C)CN(c1ccc(C(=O)O)c(O)c1)S(=O)(=O)c1ccc2ccccc2c1 [4jc117-3 13ab] | 13.8 ± 1.32 | Ki [2, 4]: 43.1 ± 14.7 µM |
| CC(C)CN(c1ccc(C(=O)O)c(O)c1)S(=O)(=O)c1ccc(-c2ccccc2)cc1 [4jc117-4 13ac] | 4.11 ± 0.245 | Ki [2, 4]: 10.8 ± 2.55 µM |
| O=C(O)c1cc(S(=O)(=O)N2CCN(c3ccccc3)CC2)c2ccccc2c1O [Compound 3j, 1-Hydroxy-4-((4-phenylpiperazin-1-yl)sulfonyl)-2-naphthoic Acid] | 4.54 ± 3.86 |  |
| O=C(O)c1cc(S(=O)(=O)N2CCN(Cc3ccccc3)CC2)c2ccccc2c1O [Compound 3k, 4-((4-Benzylpiperazin-1-yl)sulfonyl)-1-hydroxy-2-naphthoic Acid] | 3.41 ± 0.37 |  |
| O=C(O)c1cc(S(=O)(=O)Nc2ccccc2)c2ccccc2c1O [Compound 3l, 1-Hydroxy-4-(N-phenylsulfamoyl)-2-naphthoic acid] | 106 ± 26 |  |
| O=C(O)c1cc(S(=O)(=O)Nc2ccccc2Br)c2ccccc2c1O [Compound 3m, 4-(N-(2-bromophenyl)sulfamoyl)-1-hydroxy-2-naphthoic Acid] | 6.84 ± 2.23 |  |
| O=C(O)c1cc(S(=O)(=O)Nc2cccc(Br)c2)c2ccccc2c1O [Compound 3n, 4-(N-(3-Bromophenyl)sulfamoyl)-1-hydroxy-2-naphthoic Acid] | 5.64 ± 1.76 |  |
| O=C(O)c1cc(S(=O)(=O)Nc2ccccc2-c2ccccc2)c2ccccc2c1O [Compound 3r, 4-(N-([1,1′-Biphenyl]-2-yl)sulfamoyl)-1-hydroxy-2-naphthoic Acid] | 8.5 ± 1.34 |  |
| O=C(O)c1cc(S(=O)(=O)Nc2cccc(-c3ccccc3)c2)c2ccccc2c1O [Compound 3s, 4-(N-([1,1′-Biphenyl]-3-yl)sulfamoyl)-1-hydroxy-2-naphthoic Acid] | 1.88 ± 0.62 |  |
| O=C(O)c1cc(S(=O)(=O)Nc2ccc(-c3ccccc3)cc2)c2ccccc2c1O [Compound 3t, 4-(N-([1,1′-Biphenyl]-4-yl)sulfamoyl)-1-hydroxy-2-naphthoic Acid] | 1.54 ± 0.46 |  |
| O=C(O)c1cc(S(=O)(=O)Nc2ccc(Cl)cc2)c2ccccc2c1O [Compound 3v, 4-(N-(4-Chlorophenyl)sulfamoyl)-1-hydroxy-2-naphthoic Acid] | 1.91 ± 0.26 |  |
| O=C(O)c1cc(S(=O)(=O)Nc2ccc(C(F)(F)F)cc2)c2ccccc2c1O [Compound 3w, 1-Hydroxy-4-(N-(4-(trifluoromethyl)phenyl)sulfamoyl)-2-naphthoic Acid] | 2.5 ± 0.65 |  |
| Cc1ccc(NS(=O)(=O)c2cc(C(=O)O)c(O)c3ccccc23)cc1 [Compound 3x, 1-Hydroxy-4-(N-(p-tolyl)sulfamoyl)-2-naphthoic Acid] | 34.3 ± 1 |  |
| CC(C)c1ccc(NS(=O)(=O)c2cc(C(=O)O)c(O)c3ccccc23)cc1 [Compound 3y, 1-Hydroxy-4-(N-(4-isopropylphenyl)sulfamoyl)-2-naphthoic Acid] | 3.86 ± 1.53 |  |
| Cc1ccc(S(=O)(=O)N(CC(C)C)c2ccc(C(=O)O)c(O)c2)cc1 [Compound 4jc117-2, 2-hydroxy-4-(N-isobutyl-4-methylphenylsulfonamido)benzoic acid] |  | Ki ([1]; read-out: Mcl-1 Ki): 302 ± 31.8 µM |
| CC(C)CN(c1ccc(C(=O)O)c(O)c1)S(=O)(=O)c1ccc2ccccc2c1 [Compound 4jc117-3, 2-hydroxy-4-(N-isobutylnaphthalene-2-sulfonamido)benzoic acid] |  | Ki [1, 5]: 60.3 ± 24.4 µM |
| CC(C)CN(c1ccc(C(=O)O)c(O)c1)S(=O)(=O)c1ccc(-c2ccccc2)cc1 [Compound 4jc117-4, 2-hydroxy-4-(N-isobutyl-[1,1′-biphenyl]-4-ylsulfonamido)benzoic acid] |  | Ki [1, 5]: 7.87 ± 0.263 µM |
| Cc1cc(Oc2ccc(S(=O)(=O)N(CC(C)C)c3ccc(C(=O)O)c(O)c3)cc2)cc(C)c1Cl [Compound 4jc117-6] |  | Ki [1, 5]: 0.02 ± 0.012 µM; Ki ([2]; fluorescence polarization competition assay, read-out: Ki (μM) Bcl-xL): 0.05 ± 0.01 µM |
| CC(C)CN(c1ccc(O)c(C(=O)O)c1)S(=O)(=O)c1ccccc1 [JY-5-296 18ba] | 46.5 ± 9.82 | Ki [2, 4]: 49.3 ± 5.03 µM |
| CC(C)CN(c1ccc(O)c(C(=O)O)c1)S(=O)(=O)c1ccc(-c2ccccc2)cc1 [JY-5-300 18bc] | 8.7 ± 2.05 | Ki [2, 4]: 13.9 ± 3.36 µM |
| O=C(O)c1ccc2c(c1)CCCN2S(=O)(=O)c1ccc(-c2ccccc2)cc1 [LC-3-002, 1-([1,1′-biphenyl]-4-ylsulfonyl)-1,2,3,4-tetrahydroquinoline-6-carboxylic acid] | 14 |  |
| O=C(O)c1ccc2c(c1)CCCN2S(=O)(=O)c1ccc(Br)cc1 [LC-3-004, 1-((4-bromophenyl)sulfonyl)-1,2,3,4-tetrahydroquinoline-6-carboxylic acid] | 203 |  |
| O=C(O)c1ccc2c(c1)CCCN2S(=O)(=O)c1ccc2ccccc2c1 [LC-3-006, 1-(naphthalen-2-ylsulfonyl)-1,2,3,4-tetrahydroquinoline-6-carboxylic acid] | 22 |  |

| Compound | Ki [1, 3] [µM] | further results |
| --- | --- | --- |
| O=C(O)c1ccc2c(c1)CCCN2S(=O)(=O)c1ccc(F)cc1 [LC-3-010, 1-((4-fluorophenyl)sulfonyl)-1,2,3,4-tetrahydroquinoline-6-carboxylic acid] | > 1000 |  |
| Cc1cc(Oc2ccc(S(=O)(=O)N3CCCc4cc(C(=O)O)ccc43)cc2)cc(C)c1Cl [LC-3-012, 1-((4-(4-chloro-3,5-dimethylphenoxy)phenyl)sulfonyl)-1,2,3,4-tetrahydroquinoline-6-carboxylic acid] | 0.332 |  |
| CC(C)CN(c1ccc(C(=O)O)cc1)S(=O)(=O)c1ccc(F)cc1 [LC-3-025 8d] | > 500 |  |
| CC(C)CN(c1ccc(C(=O)O)cc1)S(=O)(=O)c1ccccc1 [LC-3-029 8a] | > 500 |  |
| CC(C)CN(c1ccc(C(=O)O)cc1)S(=O)(=O)c1ccc(-c2ccccc2)cc1 [LC-3-030 8c] | 16.7 ± 2.28 | Ki ([1]; FPCA with FITC-Bak, Ki from IC50 by Nikolovska-Coleska equation, listed as 8c, read-out: Mcl-1 Ki): 16.7 µM |
| CC(C)CN(c1ccc(C(=O)O)cc1)S(=O)(=O)c1ccc2ccccc2c1 [LC-3-031 8b] | > 500 |  |
| Cc1cc(Oc2ccc(S(=O)(=O)N(CC(C)C)c3ccc(C(=O)O)cc3)cc2)cc(C)c1Cl [LC-3-035 8e] | 2.06 ± 0.118 |  |
| Cc1cc(Oc2ccc(S(=O)(=O)N(CC(C)C)c3ccc(C(=O)O)cc3)cc2)cc(C)c1Cl [LC-3-035, 4-(4-(4-chloro-3,5-dimethylphenoxy)-N-isobutylphenylsulfonamido)benzoic acid] |  | Ki [1, 5]: 0.261 ± 0.558 µM |
| O=C(O)c1ccc(N(C2CCCC2)S(=O)(=O)c2ccc(-c3ccccc3)cc2)cc1O [LC-4-082 13bb] | 5.24 ± 0.694 |  |
| O=C(O)c1ccc(N(C2CCCC2)S(=O)(=O)c2ccc3ccccc3c2)cc1O [LC-4-083 13ba] | 24.7 ± 9.45 |  |
| Cc1cc(C)cc(Oc2ccc(S(=O)(=O)N(CC(C)C)c3ccc(C(=O)O)c(O)c3)cc2)c1 [LC-4-100 13ai] | 2.96 ± 0.286 |  |
| Cc1cc(Oc2ccc(S(=O)(=O)N(c3ccc(C(=O)O)c(O)c3)C3CCCC3)cc2)cc(C)c1Cl [LC-4-104 13bc] | 1.76 ± 0.208 | Ki [2, 4]: 1.91 ± 0.117 µM |
| CC(C)CN(c1ccc(C(=O)O)c(O)c1)S(=O)(=O)c1ccc(Oc2ccc(Cl)cc2Cl)cc1 [LC-4-111 13aj] | 2.74 ± 0.258 |  |
| O=C(O)c1ccc(N(Cc2ccccc2)S(=O)(=O)c2ccc(-c3ccccc3)cc2)cc1O [LC-4-112 13cb] | 1.71 ± 0.144 |  |
| O=C(O)c1ccc(N(Cc2ccccc2)S(=O)(=O)c2ccc3ccccc3c2)cc1O [LC-4-113 13ca] | 11.4 ± 1.57 |  |
| Cc1ccc(Oc2ccc(S(=O)(=O)N(CC(C)C)c3ccc(C(=O)O)c(O)c3)cc2)cc1 [LC-4-119 13ah] | 2.25 ± 0.168 |  |
| CC(C)CN(c1ccc(C(=O)Oc2ccccc2)c(O)c1)S(=O)(=O)c1ccc(Oc2ccccc2)cc1 [LC-4-134 21] | > 500 |  |
| CC(=O)OCOC(=O)c1ccc(N(CC(C)C)S(=O)(=O)c2ccc(Oc3ccccc3)cc2)cc1O [LC-4-141 22] | > 500 |  |
| CC(C)CN(c1ccc(C(=O)O)c(O)c1)S(=O)(=O)c1ccc(Br)cc1 [LC-5-012 13ae] | 17 ± 1.5 |  |
| CC(C)CN(c1ccc(C(=O)O)c(O)c1)S(=O)(=O)c1ccc(F)cc1 [LC-5-025 13ad] | 99.4 ± 9.37 |  |
| CC(C)CN(c1ccc(C#N)c(O)c1)S(=O)(=O)c1ccc(Oc2ccccc2)cc1 [LC-5-050 23] | > 500 |  |
| CC(C)CN(c1ccc(C(=O)NO)c(O)c1)S(=O)(=O)c1ccc(Oc2ccccc2)cc1 [LC-5-061 25] | 71 ± 5.8 |  |
| CC(C)CN(c1ccc(-c2nnn[nH]2)cc1)S(=O)(=O)c1ccc(Oc2ccccc2)cc1 [LC-5-068 24] | 3.3 ± 0.26 |  |
| CC(C)CN(c1ccc(-c2cc(=O)[nH]o2)cc1)S(=O)(=O)c1ccc(Oc2ccccc2)cc1 [LC-5-069Toptop 26] | > 500 |  |
| COc1cc(N(CC(C)C)S(=O)(=O)c2ccc(Oc3ccccc3)cc2)ccc1C(=O)O [LC-5-106 19] | 107 ± 31.1 |  |
